From patent publication US5057523A, “Dipeptide quinolone derivatives” (Abbott Laboratories, priority 1989, dated 1991)
Converted amounts (≈) assume the structure as drawn.

Tests used:
Ps. Aeruginosa A5007 = assay: Second in vitro test, MIC in Brain Heart Infusion Broth (BHIB)
Description: (§2) The in vitro antibacterial activity of the test compounds was determined by conventional agar dilution procedures. The organisms were grown overnight in brain-heart infusion (BHI) broth (Difco 0037-01-6) at 36° C. Twofold dilutions of the stock solution (2000 mcg/mL) of the test compound were made in BHI agar to obtain a test concentration ranging from 200 to 0.005 mcg/mL. The plate was inoculated with approximately 10^4 organisms. It was then incubated at 36° C. for 18 h.

Stap. Aureus CMX 553 = assay: as above
Description: as §2

[1] = Plasma level in dog after oral dose; type: in vivo; settings: 10 mg equivalent/kg oral dose, HPLC
Source text: The plasma samples were collected and determined by the HPLC analysis.

E. Coli Juhl [2] = assay: Second in vitro test, MIC in Brain Heart Infusion Broth (BHIB)
Description: as §2

E. Coli Juhl [3] = assay: Acute mouse protection test; type: in vivo; settings: mice infected intraperitoneally with E. Coli JUHL, dosed at 1 and 5 hours post-infection
[4] = Aqueous solubility (water and pH 7.4); settings: the sign > refers to an approximate value, solubility may be within 10% higher
Stap. Aureus NCTC 10649 = assay: Acute mouse protection test; type: in vivo; settings: mice infected intraperitoneally with Stap. Aureus NCTC 10649, dosed at 1 and 5 hours post-infection
[5] = Conversion of prodrug to parent drug in whole blood at 37° C.; type: in vitro ADME; settings: conversion to parent drug in dog whole blood at 37° C.; seconds; two values = two prodrug peaks
Description: An aqueous solution of prodruq (Z) is spiked into fresh whole blood containing sodium heparin as an anticoagulant. The sample is mixed gently by inversion and placed in a 37° waterbath. At selected time intervals an 0.5 ml aliquot of blood is removed and placed in a chilled 1.5 ml centrifuge tube (ice temperature). Samples are centrifuges at 13,000 rpm for two minutes to separate plasma. An 0.2 ml aliquot of the plasma sample is combined with 0.2 ml internal standard (7-(4-amino-2-methyl-1-pyrrolidinyl)-1-(2,4-difluorophenyl)-6-fluoro-1,4-d ihydro-4-oxo-1,8-naphthyridine-3-carboxylic acid in 0.2 M sodium phosphate pH 7.2 buffer) and 6 mls CH2 Cl2 :EtoH (9:1 by volume). Samples are capped and shaken gently for 10 minutes. Samples are centrifuqes at 2500 rpm for 10 minutes (4° C.). The aqueous layer is aspirated to waste and the organic layer is transferred to a conical centrifuge tube and evaporated to dryness with a stream of dry air and low heat […]. Samples are reconstituted with 0.2 ml mobile phase followed by vortexing. Samples are centrifuqes at 2500 rpm for 10 minutes to separate precipitate. The supernatant is transferred to a WISP vial with plastic insert for HPLC analysis.

Strep pyogenes EES 61 = assay: Second in vitro test, MIC in Brain Heart Infusion Broth (BHIB)
Description: as §2

P. Aeruginosa A5007 = assay: Acute mouse protection test; type: in vivo; settings: mice infected intraperitoneally with P. Aeruginosa A5007, dosed at 1 and 5 hours post-infection
[6] = tested on: ENTEROBACTER AEROGENES ATCC 13048; assay: In vitro antibacterial activity, agar dilution MIC (BHIA); type: cell-based; settings: BHI agar
ESCHERICHIA COLI SS = assay: as above; type: cell-based; settings: BHI agar
Source text: (§1) The MIC results are in μg/ml.

ESCHERICHIA COLI H560 = assay: as above; type: cell-based; settings: BHI agar
Source text: as §1

ESCHERICHIA COLI DC-2 = assay: as above; type: cell-based; settings: BHI agar
Source text: as §1

[7] = tested on: PROVIDENCIA STUARTII CMX 640; assay: as above; type: cell-based; settings: BHI agar
[8] = tested on: ENTEROCOCCUS FAECIUM ATCC 8043; assay: as above; type: cell-based; settings: BHI agar
[9] = tested on: STREPTOCOCCUS BOVIS A5169; assay: as above; type: cell-based; settings: BHI agar
PSEUDOMONAS CEPACIA 2961 = assay: as above; type: cell-based; settings: BHI agar
[10] = tested on: PSEUDOMONAS AERUGINOSA BMH10; assay: as above; type: cell-based; settings: BHI agar
[11] = tested on: MICROCOCCUS LUTEUS ATCC 9341; assay: as above; type: cell-based; settings: BHI agar
[12] = tested on: PSEUDOMONAS AERUGINOSA K799/WT; assay: as above; type: cell-based; settings: BHI agar
[13] = tested on: MICROCOCCUS LUTEUS ATCC 4698; assay: as above; type: cell-based; settings: BHI agar
[14] = tested on: PSEUDOMONAS AERUGINOSA A5007; assay: as above; type: cell-based; settings: BHI agar
ESCHERICHIA COLI KNK 437 = assay: as above; type: cell-based; settings: BHI agar
[15] = tested on: PSEUDOMONAS AERUGINOSA K799/61; assay: as above; type: cell-based; settings: BHI agar
[16] = tested on: STREPTOCOCCUS PYOGENES 930 CONST; assay: as above; type: cell-based; settings: BHI agar
[17] = tested on: STREPTOCOCCUS PYOGENES 2548 INDUC; assay: as above; type: cell-based; settings: BHI agar
ACINETOBACTER SP CMX 669 = assay: as above; type: cell-based; settings: BHI agar
[18] = tested on: STREPTOCOCCUS AGALACTIAE CMX 508; assay: as above; type: cell-based; settings: BHI agar
[19] = tested on: KLEBSIELLA PNEUMONIAE ATCC 8045; assay: as above; type: cell-based; settings: BHI agar
[20] = tested on: STREPTOCOCCUS PYOGENES EES61; assay: as above; type: cell-based; settings: BHI agar
ESCHERICHIA COLI JUHL = assay: as above; type: cell-based; settings: BHI agar

Row | Compound | Oral (ED50) (E. Coli Juhl [3]) | Water Solubility [4] | Oral (ED50) (Stap. Aureus NCTC 10649) | Oral (ED50) (P. Aeruginosa A5007) | MIC [6] | MIC (ESCHERICHIA COLI SS) | MIC (ESCHERICHIA COLI H560) | MIC (ESCHERICHIA COLI DC-2) | MIC [7] | MIC ([8]; ENTEROCOCCUS FAECIUM ATCC 8043) | MIC ([9]; STREPTOCOCCUS BOVIS A5169) | MIC (PSEUDOMONAS CEPACIA 2961) | MIC [10] | MIC [11] | MIC [12] | MIC [13] | MIC [14] | MIC (ESCHERICHIA COLI KNK 437) | MIC [15] | MIC [16] | also measured
1 | CCC[C@H](NC(=O)[C@@H](N)CCC)C(=O)NC1CCN(c2nc3c(cc2F)c(=O)c(C(=O)O)cn3-c2ccc(F)cc2F)C1.Cl (stereo partly drawn) [Example 3b, 7-(3-L-Norvaline-L-Norvalineamino-1-pyrrolidinyl)-1-(2,4-difluorophenyl)-6-fluoro-1,4-dihydro-4-oxo-1,8-naphthyridine-3-carboxylic acid hydrochloride] | 4.0 mg/kg/day | > 40 mg/mL | 1.8 mg/kg/day | 9.1 mg/kg/day | – | – | – | – | – | – | – | – | – | – | – | – | – | – | – | – | MIC (Ps. Aeruginosa A5007): 50 µg/mL; MIC (Stap. Aureus CMX 553): 12.5 µg/mL; C max (range) ([1]; maximum plasma concentration): 1.9 (1.5-2.2) mcg/ml; AUC (0-32 h) ([1]; plasma, 0-32 h): 10.2 µg·h/mg; MIC (E. Coli Juhl [2]): 25 µg/mL; Half Life Dog [5]: 1.44 min; MIC (Strep pyogenes EES 61): 12.5 µg/mL
2 | NC1CCN(c2nc3c(cc2F)c(=O)c(C(=O)O)cn3-c2ccc(F)cc2)C1 (stereo not drawn) [compound A, 7-(3-amino-1-pyrrolidinyl)-6-fluoro-1-(4-fluorophenyl)-1,4-dihydro-4-oxo-1 ,8-naphthyridine-3-carboxylic acid, reference compound] | – | 1.4 mg/mL | – | – | – | – | – | – | – | – | – | – | – | – | – | – | – | – | – | – | –
3 | CC(N)C(=O)NC(C)C(=O)NC1CCN(c2nc3c(cc2F)c(=O)c(C(=O)O)cn3-c2ccc(F)cc2F)C1 (stereo not drawn) [Example 15] | 2.0 mg/kg/day | – | 1.3 mg/kg/day | 9.1 mg/kg/day | 25 µg/mL (≈ 45.7 µM) | .39 µg/mL (≈ 0.714 µM) | 6.2 µg/mL (≈ 11.3 µM) | 100 µg/mL (≈ 183 µM) | 100 µg/mL (≈ 183 µM) | 50 µg/mL (≈ 91.5 µM) | 50 µg/mL (≈ 91.5 µM) | 50 µg/mL (≈ 91.5 µM) | 100 µg/mL (≈ 183 µM) | > 100 µg/mL | 50 µg/mL (≈ 91.5 µM) | 100 µg/mL (≈ 183 µM) | 100 µg/mL (≈ 183 µM) | 50 µg/mL (≈ 91.5 µM) | 3.1 µg/mL (≈ 5.67 µM) | – | –
4 | 7-[3-Norvaline-amino-1-pyrrolidinyl]-1-(2,4-difluoro-phenyl)- 6-fluoro-1,4-dihydro-4-oxo-1,8-naphthyridine-3-carboxylic acid hydrochloride [Example 2b] | – | – | – | – | 3.1 µg/mL | .02 µg/mL | .78 µg/mL | 12.5 µg/mL | 50 µg/mL | .78 µg/mL | 1.56 µg/mL | 50 µg/mL | 6.2 µg/mL | 25 µg/mL | 6.2 µg/mL | 25 µg/mL | 12.5 µg/mL | 6.2 µg/mL | .39 µg/mL | .78 µg/mL | MIC [17]: .39 µg/mL; MIC (ACINETOBACTER SP CMX 669): 3.1 µg/mL; MIC ([18]; STREPTOCOCCUS AGALACTIAE CMX 508): 1.56 µg/mL; MIC [19]: .39 µg/mL; MIC ([20]; STREPTOCOCCUS PYOGENES EES61): 1.56 µg/mL; MIC (ESCHERICHIA COLI JUHL): .78 µg/mL
5 | CCC[C@H](NC(=O)[C@H](C)N)C(=O)NC1CCN(c2nc3c(cc2F)c(=O)c(C(=O)O)cn3-c2ccc(F)cc2F)C1 (stereo partly drawn) [Example 55b, 7-(3-Ala-Nval-amino-1-pyrrolidinyl)-6-fluoro-1-(2,4-difluorophenyl)-1,4-di hydro-4-oxo-1,8-naphthyridine-3-carboxylic acid] | – | 26 mg/mL | – | – | – | – | – | – | – | – | – | – | – | – | – | – | – | – | – | – | –
6 | Cl.NCC(=O)N[C@@H](Cc1ccccc1)C(=O)NC1CCN(c2nc3c(cc2F)c(=O)c(C(=O)O)cn3-c2ccc(F)cc2F)C1 (stereo partly drawn) [Example 1b, 7-[(3-Gly-L-Phe-amino)-1-pyrrolidinyl]-1-(2,4-difluorophenyl)-6-fluoro-1,4-dihydro-4-oxo-1,8-naphthyridine-3-carboxyli c acid hydrochloride] | 1.8 mg/kg/day | – | 0.7 mg/kg/day | 27.3 mg/kg/day | 12.5 µg/mL | .2 µg/mL | 1.56 µg/mL | 100 µg/mL | 100 µg/mL | – | – | 50 µg/mL | 25 µg/mL | 6.25 µg/mL | 25 µg/mL | .78 µg/mL | 25 µg/mL | 25 µg/mL | 12.5 µg/mL | .78 µg/mL | MIC ([8]; EN[…] ATCC 8043): 1.56 µg/mL; MIC [17]: .78 µg/mL; MIC ([9]; STR[…] A5169): 1.56 µg/mL; MIC (ACINETOBACTER SP CMX 669): 12.5 µg/mL; MIC ([18]; STR[…] 508): 1.56 µg/mL; MIC [19]: 12.5 µg/mL; MIC ([20]; STR[…] EES61): 1.56 µg/mL; MIC (ESCHERICHIA COLI JUHL): 3.12 µg/mL
